In paper PMC11009388, “Insights into the molecular mechanism of yellow cuticle coloration by a chitin-binding carotenoprotein in gregarious locusts” (Communications Biology, 2024):
Several values for one entry are separate records, joined by “and”; a condition that tells them apart may be missing. Identical values can stand only once.

What was measured:
[1] = molecular target: T1, BBP (β-carotene-binding protein), recombinant (Schistocerca gregaria, UniProt A0A6N3ISN1); assay: HPLC of carotenoids bound to purified protein; settings: late induction in ECH/CAN-producing E. coli; competing with β-carotene in membranes
T1 construct: gene YPT; mature form residues 23-273, signal peptide removed; N-terminal His6 tag cleaved by 3C leaving GSHM; E. coli C41(DE3) making carotenoids
T1 sequence (A0A6N3ISN1 23-273): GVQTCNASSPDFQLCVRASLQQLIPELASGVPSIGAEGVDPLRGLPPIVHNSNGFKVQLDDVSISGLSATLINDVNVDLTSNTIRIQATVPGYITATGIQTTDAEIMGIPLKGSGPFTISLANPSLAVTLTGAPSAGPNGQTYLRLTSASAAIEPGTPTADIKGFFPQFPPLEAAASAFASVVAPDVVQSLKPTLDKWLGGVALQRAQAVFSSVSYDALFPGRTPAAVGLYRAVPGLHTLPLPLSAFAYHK

BmCBP = molecular target: T2, BmCBP (Bombyx mori, UniProt Q8MYA9); assay: induced UV/Vis circular dichroism, absorbance spectrum, SECmelt; type: binding; settings: 20 mM phosphate pH 7.2 (CD); sample has excess apoform
T2 construct: residues 68-297 (START domain), His-tag cleaved, preparation from previous work
T2 sequence (Q8MYA9 68-297): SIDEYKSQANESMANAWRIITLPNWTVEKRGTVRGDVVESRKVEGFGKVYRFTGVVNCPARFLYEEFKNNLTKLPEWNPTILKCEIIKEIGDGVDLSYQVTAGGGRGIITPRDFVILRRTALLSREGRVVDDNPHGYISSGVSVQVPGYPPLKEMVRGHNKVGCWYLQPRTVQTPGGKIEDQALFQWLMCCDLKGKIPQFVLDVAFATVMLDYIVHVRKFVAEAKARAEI

[2] = molecular target: T1, BBP (β-carotene-binding protein), recombinant; assay: HPLC of bound carotenoid, absorbance, CD and Raman spectra, SEC of holoprotein; settings: reconstituted in β-carotene-producing E. coli; 20 mM Tris-HCl pH 7.5, 150 mM NaCl
[3] = molecular target: native BBP extracted from the yellow locust cuticle (Schistocerca gregaria (endogenous in locust cuticle)); assay: SEC; clarified soluble extract of yellow locust cuticle on Superdex 200 Increase 5/150, 0.45 mL/min; 20 mM Tris-HCl pH 7.5, 150 mM NaCl, 3 mM βME, 0.5 mM PMSF; apparent Mw from column calibration
[4] = molecular target: recombinant β-carotene-binding protein from Schistocerca gregaria in complex with β-carotene, BBP(βCar) (Schistocerca gregaria); assay: SEC-MALS; Superdex 200 Increase 10/300, 20 mM Tris pH 7.5, 150 mM NaCl, 3 mM βME, 0.8 mL/min; self-association of BBP(βCar)
[5] = molecular target: recombinant β-carotene-binding protein from Schistocerca gregaria in complex with β-carotene, BBP(βCar) (Schistocerca gregaria); assay: cross-linking; glutaraldehyde 0.23%, 15 min at 30 °C, 20 mM HEPES pH 7.5, 150 mM NaCl; analysed by SDS-PAGE
[6] = molecular target: recombinant β-carotene-binding protein from Schistocerca gregaria in complex with β-carotene, BBP(βCar) (Schistocerca gregaria); assay: SEC; spectrochromatography on Superdex 200 Increase 5/150, 0.45 mL/min; 20 mM Tris-HCl pH 7.5, 150 mM NaCl, 3 mM βME, also with 2 M urea or 0.05% DOC, or 10 mM MES pH 6.0, 150 mM NaCl; apparent Mw from column calibration

## CC1=C(/C=C/C(C)=C/C=C/C(C)=C/C=C/C=C(C)/C=C/C=C(C)/C=C/C2=C(C)C(=O)CCC2(C)C)C(C)(C)CCC1=O [CAN, canthaxanthin]
[1]
  HPLC of carotenoids bound to purified protein: also exhibits capacity to bind ECH and, less efficiently, CAN

## CC1=C(/C=C/C(C)=C/C=C/C(C)=C/C=C/C=C(C)/C=C/C=C(C)/C=C/C2=C(C)C(=O)CCC2(C)C)C(C)(C)CCC1 [ECH, echinenone]
[1]
  HPLC of carotenoids bound to purified protein: BBP avidly binds β-carotene but also exhibits capacity to bind ECH

## CC1=C(/C=C/C(C)=C/C=C/C(C)=C/C=C/C=C(C)/C=C/C=C(C)/C=C/C2=C(C)C[C@@H](O)CC2(C)C)C(C)(C)C[C@H](O)C1 [ZEA, zeaxanthin]
BmCBP
  induced UV/Vis circular dichroism, absorbance spectrum, SECmelt: UV/Vis circular dichroism spectrum was distinctly different from that of the BmCBP complex with ZEA

## CC1=C(/C=C/C(C)=C/C=C/C(C)=C/C=C/C=C(C)/C=C/C=C(C)/C=C/C2=C(C)CCCC2(C)C)C(C)(C)CCC1 [βCar, β-carotene]
[2]
  HPLC of bound carotenoid, absorbance, CD and Raman spectra, SEC of holoprotein: recombinant BBP, like native BBP from locusts, indeed contains almost exclusively β-carotene

## native BBP extracted from the yellow locust cuticle (natural protein)
[3]
  stoichiometry N: 2

## recombinant β-carotene-binding protein from Schistocerca gregaria in complex with β-carotene, BBP(βCar) (from UniProt A0A6N3ISN1 23-273) (natural protein)
[4]
  stoichiometry N: 2
[5]
  stoichiometry N: 4 and 2
[6]
  stoichiometry N: 2 and 4
